Experimental data from patent publication US20260374773A1, “MULTI-CYCLIC IRAK AND FLT3 INHIBITING COMPOUNDS AND USES THEREOF” (CHILDREN'S HOSPITAL MEDICAL CENTER, priority 2022, published 2026).

What was measured:
MOLM14 (D835Y) cells = assay: Combination drug screening with venetoclax, Cell Titer Glo, MOLM14 (D835Y); assay type: cell-based; design: key: relative excess HSA score; more negative = greater synergy; details: 10 × 10, 48 h, negative = synergy
Protocol: (§1) Combination drug therapy has the potential to produce enhanced effects with lower side effects not obtained using either agent alone, or beyond the additive effect of the different concentrations of the two different agents. To determine whether enhanced effects are observed in different drug combinations, combination drug screening was performed as previously described (Mathews-Griner, L. A. et al., Proc. Nat. Acad. Sci., 2014, 111:2349-2354; Lin, G. L. et al., Sci. Trans. Med., 2019, 11: eaaw0064). Briefly, 10 nL of compounds were acoustically dispensed into 1536-well white polystyrene tissue culture-treated plates with an Echo 550 acoustic liquid handler (Labcyte). Cells were then added to compound-containing plates at a density of 500-cells/well in 5 μL of medium. A 10-point custom concentration range was used for all listed drugs in a 10×10 matrix. Plates were incubated for 48 hours at standard incubator conditions covered by a stainless steel gasketed lid to prevent evaporation. 48 hours post compound addition, 3 μL of Cell Titer Glo (Promega) were added to each well and plates were incubated at room temperature for 15 minutes with the stainless-steel lid in place. Luminescence readings were taken using a Viewlux imager (PerkinElmer) with a 2 second exposure time per plate.
(§2) Each compound was studied in combination with venetoclax at two concentration ranges of compound and venetoclax, respectively (for a total of 4 combination dose-response curves). The dose combinations that yielded the optimal synergy score, measured as excess HSA, which are reported in Tables 23 and 24 for the FLT3 mutant cell line MOLM14 (D835Y) and the FLT3 WT cell line THP1, respectively.
(§3) Table 23 provides combination outcomes for representative compounds with venetoclax in the Cell Titer Glo assay in MOLM14 (D835Y) cells (a FLT3 mutant cell line) at 48 hours. The table provides relative excess HSA values for compounds of the disclosure used in combination with venetoclax compared to gilteritinib hemifumarate used in combination with venetoclax. A negative excess HSA score illustrates that the drug combination is better than either drug alone, wherein greater synergy is observed at larger negative values of the excess HSA score.
(§4) Excess HSA is a measure of synergy vs. additivity or antagonism, wherein a negative excess HSA value is indicative of synergy. More information on excess HSA scores can be found in Vlot, Anna H. C. et al., Drug Discovery Today, 2019, 24(12):2286-2298. […] However, different methodologies may yield different numerical scores, and different definitions of what constitutes a deviation from mere additivity vs true drug synergy. The large negative excess HSA values provided in Tables 23 and 24 illustrate that multiple members of this structural class synergize with venetoclax. The degree to which combination therapy has to potential to produce enhanced effects with lower side effects not obtained using either agent alone, or beyond the additive effect of the different concentrations of the two different agents depends on the nature of the drugs used in the combination, and the specific doses/concentrations at which they are ultimately used in the therapeutic regimen. A negative excess HSA score illustrates that the drug combination is better than either drug alone (at the concentrations being studied). […] However, the utility in certain drug combinations vs. others should not be distinguished based on cutoffs between excess HSA scores, because the score itself is only a relative indicator that is completely dependent on experimental design and is not an absolute number. Furthermore, the concept of what constitutes clinically meaningful drug synergy is something that is still being debated, not only between pharmacologists and physicians, but amongst pharmacologists themselves. […]

THP1 cells = assay: Combination drug screening with venetoclax, Cell Titer Glo, THP1; assay type: cell-based; details: 10 × 10, 48 h, negative = synergy
Protocol: as §1, §2
as §3, with “24” for “23”, “THP1 (FLT3 wild type)” for “MOLM14 (D835Y)”, “cells” for “cells (a FLT3 mutant cell line)”
as §4

[1] = compound 0-0.1 μM, venetoclax 0-20 μM
[2] = compound 0-10 μM, venetoclax 0-2 μM
[3] = compound 0-10 μM, venetoclax 0-20 μM

| Structure (SMILES) | Excess HSA (MOLM14 (D835Y) cells; [1]) | Excess HSA (THP1 cells; [2]) | Excess HSA (THP1 cells; [3]) | further results |
| --- | --- | --- | --- | --- |
| COc1cn2ncc(-c3nc(N[C@H]4CNCC[C@@H]4F)ncc3F)c2nc1C(C)(C)O [Compound 6a, 2-(3-(5-fluoro-2-(((3S,4S)-4-fluoropiperidin-3-yl)amino)pyrimidin-4-yl)-6-methoxypyrazolo[1,5-a]pyrimidin-5-yl)propan-2-ol] | −1057 | −786.4 |  |  |
| COc1cn2ncc(-c3nc(N[C@@H]4CCCNC4)ncc3F)c2nc1C1CC1 [Compound 14a, (R)-4-(5-cyclopropyl-6-methoxypyrazolo[1,5-a]pyrimidin-3-yl)-5-fluoro-N-(piperidin-3-yl)pyrimidin-2-amine] | −559.2 |  |  | Excess HSA (THP1 cells; [1]): −1210 |
| COc1cn2ncc(-c3ccnc(N[C@H]4CNCC[C@@H]4F)n3)c2nc1C1CC1 [Compound 7a, 4-(5-cyclopropyl-6-methoxypyrazolo[1,5-a]pyrimidin-3-yl)-N-((3S,4S)-4-fluoropiperidin-3-yl)pyrimidin-2-amine] | −1364 |  | −1947 |  |
| COc1cn2ncc(-c3nc(N[C@H]4CNCC[C@@H]4F)c(F)cc3F)c2nc1C1CC1 [Compound 22, 6-(5-cyclopropyl-6-methoxypyrazolo[1,5-a]pyrimidin-3-yl)-3,5-difluoro-N-((3S,4S)-4-fluoropiperidin-3-yl)pyridin-2-amine] | −992.2 | −850.4 |  |  |
| COc1cn2ncc(-c3nc(N[C@H]4CNC[C@@H]4F)c(F)cc3F)c2nc1C1CC1 [Compound 24, 6-(5-cyclopropyl-6-methoxypyrazolo[1,5-a]pyrimidin-3-yl)-3,5-difluoro-N-((3S,4S)-4-fluoropyrrolidin-3-yl)pyridin-2-amine] |  |  | −1766 | Excess HSA (MOLM14 (D835Y) cells; compound 0-0.1 μM, venetoclax 0-2 μM): −1472 |
| COc1cn2ncc(-c3ccnc(N[C@H]4CNCC[C@@H]4F)n3)c2nc1C(C)(C)O [Compound 3a, 2-(3-(2-(((3S,4S)-4-fluoropiperidin-3-yl)amino)pyrimidin-4-yl)-6-methoxypyrazolo[1,5-a]pyrimidin-5-yl)propan-2-ol] |  | −1645 |  | Excess HSA (MOLM14 (D835Y) cells; compound 0-0.2 μM, venetoclax 0-20 μM): −1621 |
| COc1cn2ncc(-c3cncc(N[C@H]4CNCC[C@@H]4F)n3)c2nc1C1CC1 [Compound 12a, 6-(5-cyclopropyl-6-methoxypyrazolo[1,5-a]pyrimidin-3-yl)-N-((3S,4S)-4-fluoropiperidin-3-yl)pyrazin-2-amine] | −1697 |  | −1869 |  |
| COc1cn2ncc(-c3nc(N[C@@H]4CCCNC4)ccc3F)c2nc1C1CC1 [Compound 2, (R)-6-(5-cyclopropyl-6-methoxypyrazolo[1,5-a]pyrimidin-3-yl)-5-fluoro-N-(piperidin-3-yl)pyridin-2-amine] | −1843 |  |  | Excess HSA (THP1 cells; [1]): −990.8 |
| COc1cn2ncc(-c3nc(N[C@H]4CNCC[C@@H]4F)ncc3F)c2nc1C1CC1 [Compound 15a, 4-(5-cyclopropyl-6-methoxypyrazolo[1,5-a]pyrimidin-3-yl)-5-fluoro-N-((3S,4S)-4-fluoropiperidin-3-yl)pyrimidin-2-amine] | −831 | −861.1 |  |  |
